From patent US20190183114A1, “METHODS AND COMPOSITIONS FOR THE PRESERVATIONOF ORGANS” (INSERM (Institut National de la Sante et de la Recherche …, priority 2016, published 2019)
“Also recorded” adds a separate entry of the source.

Assays:
Type in all cases: cell-based, human
HAEC = assay: XTT viability assay on HAEC subjected to 24 h of cold ischemia followed by 6 h of reperfusion; conditions: for cell viability / survival after ischemia reperfusion (XTT): 24 h ischemia + 6 h reperfusion, treated during hypoxia from start (AEBSF 300 μM, Salubrinal 75 μM, STF083010 10 μM, 4μ8c 10 μM); for protection against cell death, treatment delayed by 12 h after start of cold ischemia: treatment after 12 h; for protection against cell death, treatment delayed by 12 h after start of cold ischemia / protection against cell death, treatment delayed by 6 h after start of cold ischemia: data not shown; for protection against cell death, treatment delayed by 6 h after start of cold ischemia: treatment only at 6 h
Procedure: Primary human aortic endothelial cells (HAEC) were obtained from Gibco (Lot No: #765093 and Lot No: #999999) and cultured on 1% gelatin (Sigma) coated flasks of 75 cm^2 in M200 medium supplemented with LSGS (Gibco), 8% fetal bovine serum (FBS), and 100 μg/mL penicillin and streptomycin in a humidified atmosphere at 21% O2, 5% CO2 and 37° C. The cells were split at a ratio of 1:4 every 5 days. Cells up to passage 5 were used in this study. All cell culture media, serum, and supplements were purchased from Invitrogen. STF083010 (10 μM) and 4μ8c (10 μM) were purchased from Axon MedChem. Salubrinal (75 μM) was from R&D. Tunicamycin ([…]), sodium 4-phenylbutyrate (1 mM), and 4-(2-Aminoethyl)benzenesulfonyl fluoride (AEBSF, 300 μM) were from Sigma. All chemicals were dissolved in DMSO (Sigma). IRE1α^−/− and IRE1α^+/+—which are IRE1α^−/− cells rescued by a retrovirus encoding a Flag-tagged human IRE1α—murine embryonic cells (MEC) were produced as previously described (Volmer R, Ploeg K van der, Ron D. Membrane lipid saturation activates endoplasmic reticulum unfolded protein response transducers through their transmembrane domains. Proc. Natl. Acad. Sci. 2013; 201217611). MEC were cultured in DMEM high-glucose media (Gibco) supplemented with 10% FBS, non-essential amino acids (Gibco), penicillin and streptomycin (Gibco), L-glutamine (Gibco), and puromycin (3 μg/mL).
(§1) HAEC were washed with PBS before being incubated in cold University of Wisconsin (UW) preservation solution in a chamber with hypothermic (4° C.) hypoxic atmosphere obtained by flushing the chamber atmosphere with Bactal 2 (0% O2, 95% N2 and 5% CO2) until the reach of 0% 02 in the chamber atmosphere. The oxygen level was controlled with the oximeter Oxy-4 micro from PreSens Precision Sensing GmbH with channels present in the outside atmosphere, the chamber atmosphere, and the cell supernatant. To perform the normothermic reoxygenation, cells were washed with PBS and then incubated with M200 supplemented with 2% FBS in a humidified atmosphere at 21% O2, 5% CO2 and 37° C. The durations of both hypoxia and reoxygenation are indicated in figure legends and in the manuscript.
Reverse transfection were performed using ON-TARGETplus SMART pool siRNAs targeting IRE1α (#L-004951-02-0005), XBP1 (#L-009552-00-0005), PERK (#L-004883-00-0005), ATF4 (#L-005125-00-0005), ATF6 (#L-009917-00-0005), or ON-TARGETplus Non-targeting Pool control siRNAs (#D-001810-10-05). They were purchased from Dharmacon and used at a final concentration of 20 nM. The transfection was performed using Lipofectamine RNAiMAX and Opti-MEM reduced serum medium according to the manufacturer's instructions (Invitrogen). After 6 hours of transfection, the cell medium was replaced with fresh cell culture medium containing 10% of FBS, LSGS but no antibiotics and no antimycotics. After 24 hours of transfection, cells were subjected to hypoxia-reoxygenation experiments. For cells in 96- and 24-wells plates, cell viability was analyzed according to protocol provided (XTT cell proliferation kit II, Roche Diagnostics) while cells in 6-wells were subjected to RT-qPCR analysis to detect knockdown efficiency.

ATF6 [1] = assay: RT-qPCR of ATF6 downstream targets HerpUD and GRP78 in tunicamycin-treated HAEC; conditions: 6 h tunicamycin
Procedure: (§2) Primary human aortic endothelial cells (HAEC) were obtained from Gibco (Lot No: #765093 and Lot No: #999999) and cultured on 1% gelatin (Sigma) coated flasks of 75 cm^2 in M200 medium supplemented with LSGS (Gibco), 8% fetal bovine serum (FBS), and 100 μg/mL penicillin and streptomycin in a humidified atmosphere at 21% O2, 5% CO2 and 37° C. The cells were split at a ratio of 1:4 every 5 days. Cells up to passage 5 were used in this study. All cell culture media, serum, and supplements were purchased from Invitrogen. STF083010 (10 μM) and 4μ8c (10 μM) were purchased from Axon MedChem. […]
(§3) RNA was extracted from HAEC using the NucleoSpin RNA kit (Macherey-Nagel) containing a DNase treatment to remove potentially contaminating genomic DNA. […] A quantity of 1 μg of total RNA was reverse-transcribed with High Capacity cDNA Reverse Transcription kit (ABsystems). RT-qPCR was performed in triplicate with negative template controls, negative enzyme controls and the use of a calibrator to limit inter-run variations as recommended by the MIQE guidelines (Bustin S A, Benes V, Garson J A, Hellemans J, Huggett J, Kubista M, et al. The MIQE Guidelines: Minimum Information for Publication of Quantitative Real-Time PCR Experiments. Clin. Chem. 2009; 55:611-22). […]

CHOP [2] = assay: RT-qPCR of CHOP mRNA in tunicamycin-treated HAEC; conditions: 6 h tunicamycin, hydrochloride
Procedure: as §2, §3

ATF6 [3] = assay: Western blot analysis of ATF6 at different times of ischemia; conditions: data not shown
Procedure: as §1
(§4) HAEC were washed in cold PBS and resuspended in complete lysis buffer (Roche Diagnostics, #04719956001) before being sonicated at output power of 2 for 3 seconds (Branson Sonifier 450). The protein concentration of cell lysate supernatants was measured by BCA protein assay (Bio-Rad, #23225). […] The bound primary antibodies were detected with ChemiDoc™ MP imager (Bio-Rad) by the use of HRP-conjugated secondary antibody and the ECL detection system (Amersham Biosciences). […]

IRE1α's RNase activity [4] = assay: XBP1 mRNA splicing in cells subjected to 6 h ischemia; conditions: data not shown
Procedure: as §1
We followed the method used in (Fougeray S, Bouvier N, Beaune P, Legendre C, Anglicheau D, Thervet E, et al. Metabolic stress promotes renal tubular inflammation by triggering the unfolded protein response. Cell Death Dis. 2011; 2:e143). The XBP1 cDNA encompassing the region of restriction site was amplified by PCR. […] The spliced isoform of XBP1 mRNA was resistant to Pst1 and was detected as a 448-bp amplification product whereas the unspliced isoform, containing Pst1 restriction site, was detected by the presence of two amplification products of 291-bp and 183-bp (FIG. 8A, right).

IRE1α's RNase activity [5] = assay: XBP1s and Erdj4 expression in tunicamycin-stimulated cells; conditions: data not shown
Procedure: as §2, §3

CHOP [6] = assay: RT-qPCR of CHOP mRNA in HAEC subjected to 24 h of ischemia
Procedure: as §1, with “The durations of both hypoxia and reoxygenation are indicated in figure legends and in the manuscript.” left out
as §3

ATF4 = ATF4 production in EC subjected to 6 h of ischemia; conditions: data not shown
Procedure: as §1, §4

Cc1cc(=O)oc2c(C=O)c(O)ccc12 [4μ8c]
cell viability / survival after ischemia reperfusion (XTT) (HAEC): increased EC survival

Cl.NCCc1ccc(S(=O)(=O)F)cc1 [AEBSF, 4-(2-Aminoethyl) benzenesulfonyl fluoride hydrochloride]
GRP78 mRNA expression (ATF6 [1]): decreased
HerpUD mRNA expression (ATF6 [1]): decreased
cell viability / survival after ischemia reperfusion (XTT) (HAEC; hydrochloride): improves viability; also recorded: protected endothelial cells against cold ischemia-induced death; also recorded: correctly protected EC against death
protection against cell death, treatment delayed by 12 h after start of cold ischemia (HAEC): protective effect was significantly lost
protection against cell death, treatment delayed by 6 h after start of cold ischemia (HAEC): trend towards decreased protection
CHOP mRNA expression (CHOP [2]): decreases CHOP expression; also recorded: lower CHOP mRNA expression

O=S(=O)(N=Cc1c(O)ccc2ccccc12)c1cccs1 [STF083010, N-[(2-Hydroxy-1-naphthalenyl)methylene]-2-thiophenesulfonamide]
ATF6 expression (Western blot) (ATF6 [3]; after 12 h of ischemia): trend towards increased ATF6 expression
ATF6 expression (Western blot) (ATF6 [3]; at 24 h of ischemia): no significant differences
XBP1 mRNA splicing (IRE1α's RNase activity [4]): inhibited splicing
cell viability / survival after ischemia reperfusion (XTT) (HAEC): improves viability; also recorded: increased EC survival
cell viability / survival after ischemia reperfusion (XTT) (HAEC; listed as STF): significantly increased EC survival
protection against cell death, treatment delayed by 12 h after start of cold ischemia (HAEC): did not alter the protection
protection against cell death, treatment delayed by 6 h after start of cold ischemia (HAEC): did not alter the protection
Erdj4 expression (IRE1α's RNase activity [5]): abrogated
XBP1s expression (IRE1α's RNase activity [5]): abrogated
CHOP mRNA expression (CHOP [6]): decreased CHOP mRNA expression
CHOP mRNA expression (CHOP [6]; listed as STF): significantly decreased CHOP expression to control levels

O=C(C=Cc1ccccc1)NC(NC(=S)Nc1cccc2cccnc12)C(Cl)(Cl)Cl (stereo not shown) [Salubrinal, 3-phenyl-N-[2,2,2-trichloro-1-[[(8-quinolinylamino)thioxomethyl]amino]ethyl]-2-propenamide]
cell viability / survival after ischemia reperfusion (XTT) (HAEC): improves viability; also recorded: significantly increased EC survival
cell viability / survival after ischemia reperfusion (XTT) (HAEC; listed as Salubinal): significantly protected cells against death
protection against cell death, treatment delayed by 6 h after start of cold ischemia (HAEC): lost
ATF4 production (ATF4): effectively increased
